# Test results as given in patent publication US20250326749A1, “COMPOUNDS, COMPOSITIONS, AND METHODS OF USING THEREOF” (Sionna Therapeutics Inc., priority 2022, published 2025).
# Target: T1, ΔF508-CFTR (Homo sapiens, UniProt P13569, DEL508-508)
# T1 construct: expressed in transfected cells; host or cells: CFSMEo- (human CF submucosal gland epithelial cells, ΔF508/Q2X), transiently transfected by nucleofection
# Test: ΔF508-CFTR-HRP trafficking assay (cell surface expression of ΔF508-CFTR)
# Format: cell-based
# Settings: CFSMEo- cells transiently transfected with ΔF508-CFTR-HRP; test agent 3 μM, 48 h; HRP chemiluminescence
# In short: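 Surface-expressed ΔF508-CFTR measured via extracellular HRP tag: cell-impermeable chemiluminescent substrate, 5 min, signal normalized to 0.3% DMSO vehicle.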
# T1 sequence (P13569 with tags, fused parts or gaps DEL508-508): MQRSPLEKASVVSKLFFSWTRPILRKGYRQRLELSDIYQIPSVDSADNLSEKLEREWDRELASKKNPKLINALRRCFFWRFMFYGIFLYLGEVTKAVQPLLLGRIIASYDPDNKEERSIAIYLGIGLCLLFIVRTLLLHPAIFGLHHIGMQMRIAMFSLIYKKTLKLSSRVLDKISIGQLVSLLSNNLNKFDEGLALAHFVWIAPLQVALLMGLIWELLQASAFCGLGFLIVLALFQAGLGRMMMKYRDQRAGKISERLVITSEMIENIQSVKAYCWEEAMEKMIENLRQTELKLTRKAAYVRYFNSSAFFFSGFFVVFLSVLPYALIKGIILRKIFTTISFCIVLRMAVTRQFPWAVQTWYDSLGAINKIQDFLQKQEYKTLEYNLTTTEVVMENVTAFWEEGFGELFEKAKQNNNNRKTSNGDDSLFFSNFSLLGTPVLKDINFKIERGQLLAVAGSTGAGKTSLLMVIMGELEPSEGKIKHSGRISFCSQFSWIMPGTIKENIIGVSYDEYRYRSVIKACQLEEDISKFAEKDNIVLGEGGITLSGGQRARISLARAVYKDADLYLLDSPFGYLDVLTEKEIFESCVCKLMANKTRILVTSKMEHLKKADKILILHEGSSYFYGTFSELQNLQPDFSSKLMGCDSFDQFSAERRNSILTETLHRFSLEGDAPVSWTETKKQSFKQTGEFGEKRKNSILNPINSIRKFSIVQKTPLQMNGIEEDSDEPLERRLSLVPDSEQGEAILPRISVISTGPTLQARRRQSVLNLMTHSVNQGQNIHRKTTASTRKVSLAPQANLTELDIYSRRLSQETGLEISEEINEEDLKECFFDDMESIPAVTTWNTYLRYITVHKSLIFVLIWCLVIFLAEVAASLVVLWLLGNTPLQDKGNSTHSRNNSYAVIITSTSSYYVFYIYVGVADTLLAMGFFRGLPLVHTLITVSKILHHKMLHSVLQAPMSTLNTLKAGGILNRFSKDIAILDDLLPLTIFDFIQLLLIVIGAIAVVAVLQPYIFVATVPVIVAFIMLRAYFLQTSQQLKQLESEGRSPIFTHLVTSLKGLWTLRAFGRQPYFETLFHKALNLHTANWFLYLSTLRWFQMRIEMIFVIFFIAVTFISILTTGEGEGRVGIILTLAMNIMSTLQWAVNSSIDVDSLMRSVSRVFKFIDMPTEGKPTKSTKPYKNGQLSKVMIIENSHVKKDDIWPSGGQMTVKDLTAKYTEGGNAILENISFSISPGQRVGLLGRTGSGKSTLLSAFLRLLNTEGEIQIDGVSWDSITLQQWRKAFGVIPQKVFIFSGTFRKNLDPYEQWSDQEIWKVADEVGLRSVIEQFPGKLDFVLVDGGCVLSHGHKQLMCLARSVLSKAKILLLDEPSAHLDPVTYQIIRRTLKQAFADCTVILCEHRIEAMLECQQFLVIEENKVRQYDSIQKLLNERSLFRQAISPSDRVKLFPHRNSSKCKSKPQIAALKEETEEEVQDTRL
row,RLUs: ΔF508-CFTR-HRP trafficking data normalized to the vehicle treated control (0.3% DMSO),Structure (SMILES)
1,A (RLU 5.0 μM-10 μM),"C[C@H](Oc1cc(-n2nc(C(F)(F)F)c3c2C(O[C@H]2CC[C@H](C(=O)O)CC2)CCC3)cnc1F)c1ccc2c(c1)OC(F)(F)O2 (stereo in doubt) [79 (P2), 4-[[(7R)-1-[5-[(1S)-1-(2,2-difluoro-1,3-benzodioxol-5-yl)ethoxy]-6-fluoro-3-pyridyl]-3-(trifluoromethyl)-4,5,6,7-tetrahydroindazol-7-yl]oxy]cyclohexanecarboxylic acid]"
2,B (RLU 3.5 μM-5.0 μM),"C[C@H](Oc1cc(-n2nc(C(F)(F)F)c3c2C(O[C@H]2CC[C@H](C(=O)O)CC2)CCC3)cc(F)n1)c1ccc2c(c1)OC(F)(F)O2 (stereo in doubt) [80 (P2), 4-[[(7R)-1-[2-[(1S)-1-(2,2-difluoro-1,3-benzodioxol-5-yl)ethoxy]-6-fluoro-4-pyridyl]-3-(trifluoromethyl)-4,5,6,7-tetrahydroindazol-7-yl]oxy]cyclohexanecarboxylic acid]"
3,B (RLU 3.5 μM-5.0 μM),"C[C@H](Oc1cncc(-n2nc(C(F)(F)F)c3c2N(C[C@H]2CC[C@H](C(=O)O)CC2)CCC3)c1)c1ccc2c(c1)OC(F)(F)O2 [Example 13, Trans-4-[[1-[5-[(1S)-1-(2,2-difluoro-1,3-benzodioxol-5-yl)ethoxy]-3-pyridyl]-3-(trifluoromethyl)-5,6-dihydro-4H-pyrazolo[3,4-b]pyridine-7-yl]methyl]cyclohexanecarboxylic acid]"
4,A (RLU 5.0 μM-10 μM),"C[C@@H](Oc1cc(-n2nc(C(F)(F)F)c3c2C(Oc2ccc(C(=O)O)cc2)CCC3)ccn1)c1ccc2c(c1)OC(F)(F)O2 (stereo partly drawn) [Example 21, 4-[[1-[2-[(1R)-1-(2,2-difluoro-1,3-benzodioxol-5-yl)ethoxy]-4-pyridyl]-3-(trifluoromethyl)-4,5,6,7-tetrahydroindazol-7-yl]oxy]benzoic acid]"
5,B (RLU 3.5 μM-5.0 μM),"C[C@H](Oc1cc(-n2nc(C(F)(F)F)c3c2C(Oc2ccc(C(=O)O)cc2)CCC3)ccn1)c1ccc2c(c1)OC(F)(F)O2 (stereo partly drawn) [Example 22, 4-[[1-[2-[(1S)-1-(2,2-difluoro-1,3-benzodioxol-5-yl)ethoxy]-4-pyridyl]-3-(trifluoromethyl)-4,5,6,7-tetrahydroindazol-7-yl]oxy]benzoic acid]"
6,B (RLU 3.5 μM-5.0 μM),C[C@H](Oc1cccc(-n2nc(C(F)(F)F)c3c2C(Oc2ccc(C(=O)O)cc2)CCC3)c1)c1ccc2c(c1)OC(F)(F)O2 (some centres unmarked) [Example 29]
7,A (RLU 5.0 μM-10 μM),C[C@@H](Oc1cccc(-n2nc(C(F)(F)F)c3c2C(O[C@H]2CC[C@H](C(=O)O)CC2)CCC3)c1)c1ccc2c(c1)OC(F)(F)O2 (some centres unmarked) [Example 38]
8,A (RLU 5.0 μM-10 μM),C[C@@H](Oc1cc(-n2nc(C(F)(F)F)c3c2C(OC24CC(C(=O)O)(C2)C4)CCC3)ccn1)c1ccc2c(c1)OC(F)(F)O2 (some centres unmarked) [Example 40]
9,A (RLU 5.0 μM-10 μM),"C[C@@H](Oc1cccc(-n2nc(C(F)(F)F)c3c2C(OC24CC(C(=O)O)(C2)C4)CCC3)c1)c1ccc2c(c1)OC(F)(F)O2 (stereo partly drawn) [Example 41, 3-[[1-[3-[(1R)-1-(2,2-difluoro-1,3-benzodioxol-5-yl)ethoxy]phenyl]-3-(trifluoromethyl)-4,5,6,7-tetrahydroindazol-7-yl]oxy]bicyclo[1.1.1]pentane-1-carboxylic acid]"

# The next lines start with the compound.
row,Structure (SMILES),RLUs: ΔF508-CFTR-HRP trafficking data normalized to the vehicle treated control (0.3% DMSO)
1,"C[C@H](Oc1cccc(-c2nn(CC(F)(F)F)c3c2[C@@H](Oc2ccc(C(=O)O)cc2)CCC3)n1)c1ccc2c(c1)OC(F)(F)O2 (single isomer, unassigned) [Example 126]",A (RLU 5.0 μM-10 μM)
2,"C[C@H](Nc1cc(-c2nn(C3COC3)c3c2[C@@H](Oc2ccc(C(=O)O)cc2)CCC3)ccn1)c1ccc2c(c1)OC(F)(F)O2 (single isomer, unassigned) [Example 127]",A (RLU 5.0 μM-10 μM)
3,"CC(C)n1nc(-c2ccnc(N[C@@H](C)c3ccc4c(c3)OC(F)(F)O4)c2)c2c1CCC[C@@H]2Oc1ccc(C(=O)O)cc1 (single isomer, unassigned) [Example 128]",B (RLU 3.5 μM-5.0 μM)
4,"C[C@H](Nc1cc(-c2nn(CC(F)(F)F)c3c2[C@@H](Oc2ccc(C(=O)O)cc2)CCC3)ccn1)c1ccc2c(c1)OC(F)(F)O2 (single isomer, unassigned) [Example 129]",B (RLU 3.5 μM-5.0 μM)
5,"CC(Oc1cc(-n2nc(C(F)(F)F)c3c2C(OC24CC(C(=O)O)(C2)C4)CCC3)ccn1)c1cc2c(cn1)OC(F)(F)O2 (stereo in doubt) [Example 46, 3-[[1-[2-[(1R)-1-(2,2-difluoro-[1,3]dioxolo[4,5-c]pyridine-6-yl)ethoxy]-4-pyridyl]-3-(trifluoromethyl)-4,5,6,7-tetrahydroindazol-7-yl]oxy]bicyclo[1.1.1]pentane-1-carboxylic acid]",B (RLU 3.5 μM-5.0 μM)
6,"C[C@H](Oc1cc(-n2nc(C(F)(F)F)c3c2N(Cc2ccc(C(=O)O)cc2)CCC3)ccn1)c1ccc2c(c1)OC(F)(F)O2 [Example 8, 4-[[1-[2-[(1S)-1-(2,2-difluoro-1,3-benzodioxol-5-yl)ethoxy]-4-pyridyl]-3-(trifluoromethyl)-5,6-dihydro-4H-pyrazolo[3,4-b]pyridine-7-yl]methyl]benzoic acid]",B (RLU 3.5 μM-5.0 μM)
7,"CC(Oc1cccc(-n2nc(C(F)(F)F)c3c2N(CC24CC(C(=O)O)(C2)C4)CCC3)c1)c1ccc2c(c1)OC(F)(F)O2 (centres unmarked) [Example 10, 3-[[1-[3-[1-(2,2-difluoro-1,3-benzodioxol-5-yl)ethoxy]phenyl]-3-(trifluoromethyl)-5,6-dihydro-4H-pyrazolo[3,4-b]pyridine-7-yl]methyl]bicyclo[1.1.1]pentane-1-carboxylic acid]",B (RLU 3.5 μM-5.0 μM)
8,"C[C@H](Oc1cccc(-n2nc(C(F)(F)F)c3c2N(CC24CC(C(=O)O)(C2)C4)CCC3)c1)c1ccc2c(c1)OC(F)(F)O2 [Example 11, 3-[[1-[3-[(1S)-1-(2,2-difluoro-1,3-benzodioxol-5-yl)ethoxy]phenyl]-3-(trifluoromethyl)-5,6-dihydro-4H-pyrazolo[3,4-b]pyridine-7-yl]methyl]bicyclo[1.1.1]pentane-1-carboxylic acid]",A (RLU 5.0 μM-10 μM)
9,"C[C@H](Oc1cccc(-n2nc(C(F)(F)F)c3c2N(C(=O)N2CCC(C(=O)O)CC2)CCC3)c1)c1ccc2c(c1)OC(F)(F)O2 [Example 18, 1-[1-[3-[(1S)-1-(2,2-difluoro-1,3-benzodioxol-5-yl)ethoxy]phenyl]-3-(trifluoromethyl)-5,6-dihydro-4H-pyrazolo[3,4-b]pyridine-7-carbonyl]piperidine-4-carboxylic acid]",A (RLU 5.0 μM-10 μM)
10,"CC(Oc1cccc(-n2nc(C(F)(F)F)c3c2C(Oc2ccc(C(=O)O)cc2)CCC3)c1)c1ccc2c(c1)OC(F)(F)O2 (centres unmarked) [Example 19, 4-[[1-[3-[1-(2,2-difluoro-1,3-benzodioxol-5-yl)ethoxy]phenyl]-3-(trifluoromethyl)-4,5,6,7-tetrahydroindazol-7-yl]oxy]benzoic acid]",B (RLU 3.5 μM-5.0 μM)
11,"O=C(O)c1ccc(OC2CCCc3c(C(F)(F)F)nn(-c4cccc(OCc5ccc6c(c5)OC(F)(F)O6)c4)c32)cc1 (centres unmarked) [Example 20, 4-[[1-[3-[(2,2-difluoro-1,3-benzodioxol-5-yl)methoxy]phenyl]-3-(trifluoromethyl)-4,5,6,7-tetrahydroindazol-7-yl]oxy]benzoic acid]",B (RLU 3.5 μM-5.0 μM)
12,C[C@@H](Oc1cccc(-n2nc(C(F)(F)F)c3c2C(Oc2ccc(C(=O)O)cc2)CCC3)c1)c1cc2c(cn1)OC(F)(F)O2 (some centres unmarked) [Example 30],B (RLU 3.5 μM-5.0 μM)
13,C[C@H](Oc1cccc(-n2nc(C(F)(F)F)c3c2C(Oc2ccc(C(=O)O)cc2)CCC3)c1)c1cc2c(cn1)OC(F)(F)O2 (some centres unmarked) [Example 31],C (RLU 0.0 μM-3.5 μM)
14,"C[C@@H](Oc1cccc(-n2nc(C(F)(F)F)c3c2C(Oc2ccc(C(=O)O)cc2)CCC3)c1)c1cc2c(cc1F)OC(F)(F)O2 (stereo partly drawn) [Example 32, 4-[[1-[3-[(1R)-1-(2,2,6-trifluoro-1,3-benzodioxol-5-yl)ethoxy]phenyl]-3-(trifluoromethyl)-4,5,6,7-tetrahydroindazol-7-yl]oxy]benzoic acid]",B (RLU 3.5 μM-5.0 μM)
15,"C[C@H](Oc1cccc(-n2nc(C(F)(F)F)c3c2C(Oc2ccc(C(=O)O)cc2)CCC3)c1)c1cc2c(cc1F)OC(F)(F)O2 (stereo partly drawn) [Example 33, 4-[[1-[3-[(1S)-1-(2,2,6-trifluoro-1,3-benzodioxol-5-yl)ethoxy]phenyl]-3-(trifluoromethyl)-4,5,6,7-tetrahydroindazol-7-yl]oxy]benzoic acid]",B (RLU 3.5 μM-5.0 μM)
16,Cc1cc(OC2CCCc3c(C(F)(F)F)nn(-c4cccc(O[C@@H](C)c5cc6c(cc5F)OC(F)(F)O6)c4)c32)ccc1C(=O)O (some centres unmarked) [Example 35],B (RLU 3.5 μM-5.0 μM)
17,C[C@H](Oc1cc(-n2nc(C(F)(F)F)c3c2[C@@H](OC24CC(C(=O)O)(C2)C4)CCC3)ccn1)c1ccc2c(c1)OC(F)(F)O2 [Example 51],A (RLU 5.0 μM-10 μM)
